{"source": "patent US9221827B2", "about": "“Antimicrobial compounds and methods of making and using the same” (Melinta Therapeutics, Inc., priority 2011, dated 2015)"}
{"system": "Escherichia coli strain ATCC25922", "assay": "standard microdilution assay to determine minimum inhibitory concentrations (MICs)", "format": "cell-based", "conditions": "Escherichia coli strain ATCC25922, microdilution", "procedure,_shortened": "(§1)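 Broth microdilution per CLSI (M7-A8/M100-S20), 100 μl final volume, with reference-strain quality control; MIC is the lowest inhibitory concentration. Scored \"+\"/\"−\" against a 16 micrograms/ml cutoff, \"N/A\" where unavailable.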"}
{"smiles": "C[C@H](NCCCNC(=N)N)c1ccc(-n2cc3cc(-c4cc(CCCC(C)(C)N)cc(C(F)(F)F)c4)[nH]c3nc2=O)cc1", "note": "[Compound 318]", "E. coli ATCC25922 MIC": "+ (a “+” indicates that the compound has an MIC value of 16 micrograms/ml or less)"}
{"smiles": "N=C(N)NCCCNCc1ccc(-n2cc3cc(-c4cc(CCCCN)cc(F)c4C(F)(F)F)[nH]c3nc2=O)cc1", "note": "[Compound 218]", "E. coli ATCC25922 MIC": "+ (a “+” indicates that the compound has an MIC value of 16 micrograms/ml or less)"}
{"smiles": "N=C(N)NCCCNCc1ccc(-n2cc3cc(-c4cc(CC(O)CCN)cc(OC(F)(F)F)c4)[nH]c3nc2=O)cc1", "note": "(stereo not drawn) [Compound 252]", "E. coli ATCC25922 MIC": "+ (a “+” indicates that the compound has an MIC value of 16 micrograms/ml or less)"}
{"smiles": "CC(N)CCCc1cc(SC(F)(F)F)cc(-c2cc3cn(-c4ccc(C(NCCCNC(=N)N)C(=O)O)cc4)c(=O)nc3[nH]2)c1", "note": "(stereo not drawn) [Compound 503]", "E. coli ATCC25922 MIC": "− (a “−” indicates that the compound has an MIC value greater than 16 micrograms/ml)"}
{"smiles": "CSCCc1cc(CCCCN)cc(-c2cc3cn(-c4ccc(CNCCCNC(=N)N)cc4)c(=O)nc3[nH]2)c1", "note": "[Compound 11]", "E. coli ATCC25922 MIC": "+ (a “+” indicates that the compound has an MIC value of 16 micrograms/ml or less)"}
{"smiles": "CC(N)COC(C)c1cc(-c2cc3cn(-c4ccc([C@H](C)NCCCNC(=N)N)cc4)c(=O)nc3[nH]2)cc(C(F)(F)F)c1", "note": "(stereo partly drawn) [Compound 478]", "E. coli ATCC25922 MIC": "+ (a “+” indicates that the compound has an MIC value of 16 micrograms/ml or less)"}
{"smiles": "CCc1cc(CCCCN)cc(-c2cc3cn(-c4ccc(CNCCCNC(=N)N)cc4)c(=O)nc3[nH]2)c1", "note": "[Compound 123]", "E. coli ATCC25922 MIC": "+ (a “+” indicates that the compound has an MIC value of 16 micrograms/ml or less)"}
{"smiles": "Cc1cc(CCCCN)cc(-c2cc3cn(-c4ccc(CNCCCNC(=N)N)cc4)c(=O)nc3[nH]2)c1", "note": "[Compound 9]", "E. coli ATCC25922 MIC": "+ (a “+” indicates that the compound has an MIC value of 16 micrograms/ml or less)"}
{"smiles": "CCNCCc1cc(CCCCN)cc(-c2cc3cn(-c4ccc(CNCCCNC(=N)N)cc4)c(=O)nc3[nH]2)c1", "note": "[Compound 26]", "E. coli ATCC25922 MIC": "+ (a “+” indicates that the compound has an MIC value of 16 micrograms/ml or less)"}
{"smiles": "C[C@H](NCCCNC(=N)N)c1ccc(-n2cc3cc(-c4cc(CCCC(C)(C)N)cc(SC(F)(F)F)c4)[nH]c3nc2=O)cc1", "note": "[Compound 304]", "E. coli ATCC25922 MIC": "+ (a “+” indicates that the compound has an MIC value of 16 micrograms/ml or less)"}
{"smiles": "CC(C)(N)CCCc1cc(SC(F)(F)F)cc(-c2cc3cn(-c4ccc(CNCCCNC(=N)N)cc4)c(=O)nc3[nH]2)c1", "note": "[Compound 303]", "E. coli ATCC25922 MIC": "+ (a “+” indicates that the compound has an MIC value of 16 micrograms/ml or less)"}
{"smiles": "CNC(C)CCCc1cc(Cl)c(F)c(-c2cc3cn(-c4ccc(CNCCCNC(=N)N)cc4)c(=O)nc3[nH]2)c1", "note": "(stereo not drawn) [Compound 292]", "E. coli ATCC25922 MIC": "+ (a “+” indicates that the compound has an MIC value of 16 micrograms/ml or less)"}
{"smiles": "Cc1ccc(CCCCN)cc1-c1cc2cn(-c3ccc(CNCCCNC(=N)N)cc3)c(=O)nc2[nH]1", "note": "[Compound 57]", "E. coli ATCC25922 MIC": "+ (a “+” indicates that the compound has an MIC value of 16 micrograms/ml or less)"}
{"smiles": "C[C@H](N)CCCc1cc(SC(F)(F)F)c(F)c(-c2cc3cn(-c4ccc([C@H](C)NCCCNC(=N)N)cc4)c(=O)nc3[nH]2)c1", "note": "[Compound 471]", "E. coli ATCC25922 MIC": "+ (a “+” indicates that the compound has an MIC value of 16 micrograms/ml or less)"}
{"smiles": "N=C(N)NCCCNCc1ccc(-n2cc3cc(-c4cc(CCCCN)cc(NC(N)=O)c4)[nH]c3nc2=O)cc1", "note": "[Compound 49]", "E. coli ATCC25922 MIC": "+ (a “+” indicates that the compound has an MIC value of 16 micrograms/ml or less)"}
{"smiles": "C[C@H](N)CCCc1cc(Cl)c(OC(F)(F)F)c(-c2cc3cn(-c4ccc(CNCCCNC(=N)N)cc4)c(=O)nc3[nH]2)c1", "note": "[Compound 321]", "E. coli ATCC25922 MIC": "+ (a “+” indicates that the compound has an MIC value of 16 micrograms/ml or less)"}
{"smiles": "COC(=O)CC(NCCCNC(=N)N)c1ccc(-n2cc3cc(-c4cc(CCCC(C)N)cc(SC(F)(F)F)c4)[nH]c3nc2=O)cc1", "note": "(stereo not drawn) [Compound 491]", "E. coli ATCC25922 MIC": "+ (a “+” indicates that the compound has an MIC value of 16 micrograms/ml or less)"}
{"smiles": "CC(N)CCCc1cc(SC(F)(F)F)cc(-c2cc3cn(-c4ccc(C(C)NCCCNC(=N)N)cc4)c(=O)nc3[nH]2)c1", "note": "(stereo not drawn) [Compound 231]", "E. coli ATCC25922 MIC": "+ (a “+” indicates that the compound has an MIC value of 16 micrograms/ml or less)"}
{"smiles": "NCCCCc1cc(SC(F)(F)F)c(Cl)c(-c2cc3cn(-c4ccc(CNCCCN=C(N)N)cc4)c(=O)nc3[nH]2)c1", "note": "[Compound 92]", "E. coli ATCC25922 MIC": "+ (a “+” indicates that the compound has an MIC value of 16 micrograms/ml or less)"}
{"smiles": "CC(NCCCNC(=N)N)c1ccc(-n2cc3cc(-c4cc(CCC5(CN)CC5)cc(Cl)c4F)[nH]c3nc2=O)cc1", "note": "(stereo not drawn) [Compound 272]", "E. coli ATCC25922 MIC": "+ (a “+” indicates that the compound has an MIC value of 16 micrograms/ml or less)"}
{"smiles": "NCCCCc1cc(OC(F)(F)F)cc(-c2cc3cn(-c4ccc(CNCCCN/C(N)=N\\CCCF)cc4)c(=O)nc3[nH]2)c1", "note": "[Compound 47]", "E. coli ATCC25922 MIC": "+ (a “+” indicates that the compound has an MIC value of 16 micrograms/ml or less)"}
{"smiles": "N=C(N)NCCCNCc1ccc(-n2cc3cc(-c4cc(CCC5(CN)CC5)cc(OC(F)(F)F)c4)[nH]c3nc2=O)cc1", "note": "[Compound 137]", "E. coli ATCC25922 MIC": "+ (a “+” indicates that the compound has an MIC value of 16 micrograms/ml or less)"}
{"smiles": "C[C@@H](CN)OCc1cc(-c2cc3cn(-c4ccc(CNCCCNC(=N)N)cc4)c(=O)nc3[nH]2)cc(C(F)(F)F)c1", "note": "[Compound 314]", "E. coli ATCC25922 MIC": "+ (a “+” indicates that the compound has an MIC value of 16 micrograms/ml or less)"}
{"smiles": "NCCCCc1cc(SC(F)(F)F)cc(-c2cc3cn(-c4ccc(CNCCCN=C(N)N)c(F)c4)c(=O)nc3[nH]2)c1", "note": "[Compound 68]", "E. coli ATCC25922 MIC": "+ (a “+” indicates that the compound has an MIC value of 16 micrograms/ml or less)"}
{"smiles": "Cc1cc(CCCC(C)N)cc(-c2cc3cn(-c4ccc(CNCCCNC(=N)N)cc4)c(=O)nc3[nH]2)c1F", "note": "(stereo not drawn) [Compound 219]", "E. coli ATCC25922 MIC": "+ (a “+” indicates that the compound has an MIC value of 16 micrograms/ml or less)"}
{"smiles": "C[C@H](N)CCCc1cc(CC(F)(F)F)cc(-c2cc3cn(-c4ccc(CNCCCNC(=N)N)cc4)c(=O)nc3[nH]2)c1", "note": "[Compound 306]", "E. coli ATCC25922 MIC": "+ (a “+” indicates that the compound has an MIC value of 16 micrograms/ml or less)"}
{"smiles": "N=C(N)NCCCNCc1ccc(-n2cc3cc(-c4cc(CCC(O)CN)cc(OC(F)(F)F)c4)[nH]c3nc2=O)cc1", "note": "(stereo not drawn) [Compound 240]", "E. coli ATCC25922 MIC": "+ (a “+” indicates that the compound has an MIC value of 16 micrograms/ml or less)"}
{"smiles": "CC(N)CCCc1cc(-c2cc3cn(-c4ccc(C(CCO)NCCCNC(=N)N)cc4)c(=O)nc3[nH]2)cc(C(F)(F)F)c1", "note": "(stereo not drawn) [Compound 505]", "E. coli ATCC25922 MIC": "+ (a “+” indicates that the compound has an MIC value of 16 micrograms/ml or less)"}
{"system": "Escherichia coli strain ATCC25922", "assay": "standard microdilution assay to determine minimum inhibitory concentrations (MICs)", "format": "cell-based", "conditions": "Escherichia coli strain ATCC25922, standard microdilution assay", "procedure,_shortened": "as §1"}
{"smiles": "CC(C)Cc1cc(CCC[C@H](C)N)cc(-c2cc3cn(-c4ccc([C@H](C)NCCCNC(=N)N)cc4)c(=O)nc3[nH]2)c1F", "note": "[Compound 432]", "E. coli ATCC25922 MIC": "+ (a “+” indicates that the compound has an MIC value of 16 micrograms/ml or less)"}
{"smiles": "CC(C)(N)CCCc1cc(Cl)c(F)c(-c2cc3cn(-c4ccc(CN)cc4)c(=O)nc3[nH]2)c1", "note": "[Compound 372]", "E. coli ATCC25922 MIC": "− (a “−” indicates that the compound has an MIC value greater than 16 micrograms/ml)"}
{"smiles": "C[C@H](N)COCc1cc(SC(F)(F)F)cc(-c2cc3cn(-c4ccc(CNCCCNC(=N)N)cc4)c(=O)nc3[nH]2)c1", "note": "[Compound 344]", "E. coli ATCC25922 MIC": "+ (a “+” indicates that the compound has an MIC value of 16 micrograms/ml or less)"}
{"smiles": "C[C@@H](N)CCc1cc(SC(F)(F)F)cc(-c2cc3cn(-c4ccc(CNCCCNC(=N)N)cc4)c(=O)nc3[nH]2)c1", "note": "[Compound 397]", "E. coli ATCC25922 MIC": "+ (a “+” indicates that the compound has an MIC value of 16 micrograms/ml or less)"}
{"smiles": "CC(N)COCc1cc(Cl)c(F)c(-c2cc3cn(-c4ccc(C(C)NCCCNC(=N)N)cc4)c(=O)nc3[nH]2)c1", "note": "(stereo not drawn) [Compound 376]", "E. coli ATCC25922 MIC": "+ (a “+” indicates that the compound has an MIC value of 16 micrograms/ml or less)"}
{"smiles": "N=C(N)NCCCNCc1ccc(-n2cc3cc(-c4cc(C5CCC(CN)CC5)cc(Cl)c4F)[nH]c3nc2=O)cc1", "note": "(stereo not drawn) [Compound 450]", "E. coli ATCC25922 MIC": "+ (a “+” indicates that the compound has an MIC value of 16 micrograms/ml or less)"}
{"smiles": "CC[C@H](N)CCCc1cc(Cl)c(F)c(-c2cc3cn(-c4ccc(CNCCCNC(=N)N)cc4)c(=O)nc3[nH]2)c1", "note": "[Compound 341]", "E. coli ATCC25922 MIC": "+ (a “+” indicates that the compound has an MIC value of 16 micrograms/ml or less)"}
{"smiles": "CC(N)CCCc1cc(Cl)c(F)c(-c2cc3cn(-c4ccc(C(C)NCCCNC(N)=NCC5(C)COC5)cc4)c(=O)nc3[nH]2)c1", "note": "(stereo not drawn) [Compound 347]", "E. coli ATCC25922 MIC": "+ (a “+” indicates that the compound has an MIC value of 16 micrograms/ml or less)"}
{"smiles": "C[C@H](N)CCCc1cc2c(c(-c3cc4cn(-c5ccc([C@H](C)NCCCNC(=N)N)cc5)c(=O)nc4[nH]3)c1)CCC2=O", "note": "[Compound 461]", "E. coli ATCC25922 MIC": "+ (a “+” indicates that the compound has an MIC value of 16 micrograms/ml or less)"}
{"smiles": "CC(N)CC=Cc1cc(Cl)c(F)c(-c2cc3cn(-c4ccc(C(C)NCCCNC(=N)N)cc4)c(=O)nc3[nH]2)c1", "note": "(stereo not drawn) [Compound 343]", "E. coli ATCC25922 MIC": "+ (a “+” indicates that the compound has an MIC value of 16 micrograms/ml or less)"}
{"smiles": "C[C@H](N)CCCc1cc(-c2cc3cn(-c4ccc([C@H](C)NCCCNC(=N)N)cc4)c(=O)nc3[nH]2)cc(Cl)n1", "note": "[Compound 428]", "E. coli ATCC25922 MIC": "+ (a “+” indicates that the compound has an MIC value of 16 micrograms/ml or less)"}
{"smiles": "C[C@H](N)CCCc1cc(-c2cc3cn(-c4ccc([C@H](C)NCCCNC(=N)N)cc4)c(=O)nc3[nH]2)cc(F)c1F", "note": "[Compound 464]", "E. coli ATCC25922 MIC": "+ (a “+” indicates that the compound has an MIC value of 16 micrograms/ml or less)"}
{"smiles": "C[C@H](N)c1ccc(-n2cc3cc(-c4cc(CCCC(C)(C)N)cc(SC(F)(F)F)c4)[nH]c3nc2=O)cc1", "note": "[Compound 371]", "E. coli ATCC25922 MIC": "− (a “−” indicates that the compound has an MIC value greater than 16 micrograms/ml)"}
{"smiles": "COC[C@H](N)CCCc1cc(Cl)c(F)c(-c2cc3cn(-c4ccc(CNCCCNC(=N)N)cc4)c(=O)nc3[nH]2)c1", "note": "[Compound 445]", "E. coli ATCC25922 MIC": "+ (a “+” indicates that the compound has an MIC value of 16 micrograms/ml or less)"}
